Our source for the TGI and GI50 values is PubChem BioAssay (NCI).

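The compound was tested at five concentrations on cells cultured in 96-well plates, with a 48-hour exposure period. The concentration for 50% growth inhibition is given as GI50. At the TGI there is no net growth.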

Test systems include T-47D breast; 786-0 renal; LXFL 529 NSCLC; KM20L2 colon; P388 leukemia; SN12K1 renal; P388/ADR leukemia.
Common to all, as to assay: NCI tumour cell line growth inhibition, 48 h

In the case of `C=C(C(=O)OCC)C(=O)OCC`, the TGI with T-47D breast and in the assay with 786-0 renal was more than 100 µM throughout.
In the case of `Nc1ccc(N=Nc2c(S(=O)(=O)O)cc3ccccc3c2S(=O)(=O)O)cc1`, the TGI in the assay on T-47D breast and in the assay on 786-0 renal was more than 100 µM in each case.
`O=c1oc2cc(O)ccc2c(O)c1C(c1ccccc1)c1c(O)c2ccc(O)cc2oc1=O` displayed a TGI with T-47D breast of more than 100 µM.
The same measure, in the same setting: the value for `O=C1CC2(CCC(O)(c3ccc4ccccc4c3)C(C(=O)c3ccc4ccccc4c3)C2)C(=O)c2ccccc2N1` (stereo not drawn) was more than 100 µM.
For `O=C1CCC(c2ccccc2)=NN1c1nsc2ccccc12`, the TGI in the assay on LXFL 529 NSCLC and with KM20L2 colon was more than 100 µM in each case.
As to `O=C(O)C(Cl)(Cl)Cl`, the TGI in the assay on LXFL 529 NSCLC and in the assay with KM20L2 colon was more than 100 µM throughout.
Turning to `CCCCCCCCCCCCCCCCNc1cccc2ccccc12`, the TGI in the assay with LXFL 529 NSCLC, in the assay on 786-0 renal and in the assay with KM20L2 colon was more than 100 µM throughout.
Regarding `C[n+]1c(/C=C/c2c(O)ccc3ccccc23)ccc2ccccc21`, in the assay with T-47D breast, the GI50 is 4.32 µM and the TGI worked out at 14.7 µM.
As for `COc1cc2c(cc1OC)C(C(c1ccccc1)c1ccccc1)N(C)CC2` (stereo not drawn), the TGI is more than 100 µM in the assay on P388 leukemia, more than 65.6 µM with SN12K1 renal, more than 100 µM in the assay on P388/ADR leukemia and more than 73.7 µM in the assay on KM20L2 colon.
With `C[N+](C)([O-])CCOc1cc2c(c3ccccc13)-c1ccccc1C2=O`, the TGI was more than 100 µM in the assay with P388 leukemia, 37.8 µM in the assay with SN12K1 renal, more than 45.2 µM in the assay with P388/ADR leukemia and more than 63.5 µM in the assay on KM20L2 colon.
